US8022069B2, “Substituted piperidines as renin inhibitors” (Novartis AG, priority 2008, dated 2011)

Biological target: T1, renin (Homo sapiens, UniProt P00797)
T1 construct: This test measures the formation of angiotensin I in human plasma; from tissue; host or cells: human plasma
T1 sequence (P00797 67-406): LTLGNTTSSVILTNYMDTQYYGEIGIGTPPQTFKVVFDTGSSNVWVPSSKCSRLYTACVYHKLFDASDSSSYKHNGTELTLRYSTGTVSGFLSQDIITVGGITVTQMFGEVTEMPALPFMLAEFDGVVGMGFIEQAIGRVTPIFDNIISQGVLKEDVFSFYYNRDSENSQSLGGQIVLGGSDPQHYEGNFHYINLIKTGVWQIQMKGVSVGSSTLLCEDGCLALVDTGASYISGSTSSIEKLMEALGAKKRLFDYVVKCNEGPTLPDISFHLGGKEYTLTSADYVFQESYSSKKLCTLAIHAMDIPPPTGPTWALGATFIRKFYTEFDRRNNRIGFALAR
Experiment: formation of angiotensin I in human plasma, radioimmunoassay (Nussberger et al.)
Format: biochemical
Conditions: values in the range of about, read-out: IC50, inhibition of the formation of angiotensin I
Method: The effect of renin inhibitors is detected inter alia experimentally by means of in vitro tests where the reduction in the formation of angiotensin I is measured in various systems (human plasma, purified human renin together with synthetic or natural renin substrate). The following in vitro test of Nussberger et al. (1987) J. Cardiovascular Pharmacol., Vol. 9, pp. 39-44, is used inter alia. This test measures the formation of angiotensin I in human plasma. The amount of angiotensin I formed is determined in a subsequent radioimmunoassay. The effect of inhibitors on the formation of angiotensin I is tested in this system by adding various concentrations of these substances. The IC50 is defined as the concentration of the particular inhibitor which reduces the formation of angiotensin I by 50%. The compounds of the present invention show inhibitory effects in the in vitro systems at minimal concentrations of about 10^−6 mol/l to about 10^−10 mol/l.

| IC50 | Compound |
| --- | --- |
| 0.1 to 10 nM | CCO[C@H](C)COCc1ccc([C@H]2C[C@@H](CC(C)(C)C(=O)NC)NC[C@@H]2OCc2ccc3c(c2)N(CCCOC)CCO3)cc1 [Example 5, 3-{(2S,4R,5R)-4-[4-((R)-2-Ethoxy-propoxymethyl)-phenyl]-5-[4-(3-methoxy-propyl) -3,4-dihydro-2H-benzo[1,4]oxazin-6-ylmethoxy]-piperidin-2-yl}-2,2,N-trimethyl-propionamide] |
| 0.1 to 10 nM | CCO[C@H](C)COCc1ccc([C@H]2C[C@H](CCn3cnnc3)NC[C@@H]2OCc2ccc3c(c2)N(CCCOC)CCO3)cc1 [Example 9, 6-[(3R,4R,6R)-4-[4-((R)-2-Ethoxy-propoxymethyl)-phenyl]-6-(2-[1,2,4]triazol-4-yl-ethyl) -piperidin-3-yloxymethyl]-4-(3-methoxy-propyl)-3,4-dihydro-2H-benzo[1,4]oxazine] |
